# Data: US12077503B2, “Substituted cyclic amides and their use as herbicides” (FMC CORPORATION, priority 2015, dated 2024)
# Key:
# Type in all cases: in vivo
# [1] = test system: redroot pigweed (Amaranthus retroflexus); test: Test G Post-Emergence Protocol; conditions: Amaranthus retroflexus, post-emergence, 312 h; for pest or weed control at 15.625 g/ha: 15.625 g ai/ha, evaluated after 13 days (100=total damage to plant; 0=no damage to plant), read-out: Pigweed, Redroot damage rating; for pest or weed control at 62.5 g/ha: 62.5 g ai/ha, read-out: Pigweed, Redroot damage rating (100=total damage to plant; 0=no damage to plant); for pest or weed control at 62.5 g/ha / pest or weed control at 250 g/ha: evaluated after 13 days; for pest or weed control at 250 g/ha: 250 g ai/ha, read-out: damage to plant, Pigweed, Redroot (100=total damage to plant; 0=no damage to plant)
# Method in brief: (§1)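 Scores run 0 (no damage) to 100 (total damage) and were taken 13 days after spraying. Plants had been raised in pots for 8 days under glasshouse control (24/16 °C, 14 h photoperiod, 65% humidity) and then treated at 15.625, 62.5 or 250 g/ha.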
# corn (Zea mays) [2] = test: Test G Post-Emergence Protocol; conditions: Zea mays, post-emergence, 312 h; for plant injury at 15.625 g/ha: 15.625 g ai/ha, evaluated after 13 days (100=total damage to plant; 0=no damage to plant), read-out: Corn damage rating; for plant injury at 62.5 g/ha: 62.5 g ai/ha, read-out: Corn damage rating (100=total damage to plant; 0=no damage to plant); for plant injury at 62.5 g/ha / plant injury at 250 g/ha: evaluated after 13 days; for plant injury at 250 g/ha: 250 g ai/ha, read-out: damage to plant, Corn (100=total damage to plant; 0=no damage to plant)
# Method in brief: as §1
# [3] = test system: ivy-leaved morning glory (Ipomoea hederacea); test: Test G Post-Emergence Protocol; conditions: Ipomoea, post-emergence, 312 h; for pest or weed control at 15.625 g/ha: 15.625 g ai/ha, evaluated after 13 days (100=total damage to plant; 0=no damage to plant), read-out: Morningglory, Ivy-leaved damage rating; for pest or weed control at 62.5 g/ha: 62.5 g ai/ha, read-out: Morningglory, Ivy-leaved damage rating (100=total damage to plant; 0=no damage to plant); for pest or weed control at 62.5 g/ha / pest or weed control at 250 g/ha: evaluated after 13 days; for pest or weed control at 250 g/ha: 250 g ai/ha, read-out: damage to plant, Morningglory, Ivy-leaved (100=total damage to plant; 0=no damage to plant)
# Method in brief: as §1
# [4] = test system: giant foxtail (Setaria faberi); test: Test G Post-Emergence Protocol; conditions: Setaria faberi, post-emergence, 312 h; for pest or weed control at 15.625 g/ha: 15.625 g ai/ha, evaluated after 13 days (100=total damage to plant; 0=no damage to plant), read-out: Foxtail, Giant damage rating; for pest or weed control at 62.5 g/ha: 62.5 g ai/ha, read-out: Foxtail, Giant damage rating (100=total damage to plant; 0=no damage to plant); for pest or weed control at 62.5 g/ha / pest or weed control at 250 g/ha: evaluated after 13 days; for pest or weed control at 250 g/ha: 250 g ai/ha, read-out: damage to plant, Foxtail, Giant (100=total damage to plant; 0=no damage to plant)
# Method in brief: as §1
# [5] = test system: velvetleaf (Abutilon theophrasti); test: Test G Post-Emergence Protocol; conditions: Abutilon theophrasti, post-emergence, 312 h; for pest or weed control at 15.625 g/ha: 15.625 g ai/ha, evaluated after 13 days (100=total damage to plant; 0=no damage to plant), read-out: Velvetleaf damage rating; for pest or weed control at 62.5 g/ha: 62.5 g ai/ha, read-out: Velvetleaf damage rating (100=total damage to plant; 0=no damage to plant); for pest or weed control at 62.5 g/ha / pest or weed control at 250 g/ha: evaluated after 13 days; for pest or weed control at 250 g/ha: 250 g ai/ha, read-out: damage to plant, Velvetleaf (100=total damage to plant; 0=no damage to plant)
# Method in brief: as §1
# [6] = test system: barnyardgrass (Echinochloa crus-galli); test: Test G Post-Emergence Protocol; conditions: Echinochloa crus-galli, post-emergence, 312 h; for pest or weed control at 15.625 g/ha: 15.625 g ai/ha, evaluated after 13 days (100=total damage to plant; 0=no damage to plant), read-out: Barnyardgrass damage rating; for pest or weed control at 62.5 g/ha: 62.5 g ai/ha, read-out: Barnyardgrass damage rating (100=total damage to plant; 0=no damage to plant); for pest or weed control at 62.5 g/ha / pest or weed control at 250 g/ha: evaluated after 13 days; for pest or weed control at 250 g/ha: 250 g ai/ha, read-out: damage to plant, Barnyardgrass (100=total damage to plant; 0=no damage to plant)
# Method in brief: as §1
# [7] = test system: redroot pigweed (Amaranthus retroflexus); test: Test G Pre-Emergence Protocol; conditions: Amaranthus retroflexus, pre-emergence, 312 h, evaluated after 13 days; for pest or weed control at 15.625 g/ha: 15.625 g ai/ha; for pest or weed control at 15.625 g/ha / pest or weed control at 250 g/ha: read-out: Pigweed, Redroot damage rating (100=total damage to plant; 0=no damage to plant); for pest or weed control at 62.5 g/ha: 62.5 g ai/ha, 100=total damage to plant, 0=no damage to plant, read-out: plant damage rating, Pigweed, Redroot; for pest or weed control at 250 g/ha: 250 g ai/ha
# Method in brief: (§2)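 Spraying took place one day after sowing, at 15.625, 62.5 or 250 g/ha, using an acetone/water (50:50) spray solution containing 0.5% Tween 20. Plants were kept under glasshouse conditions (24/16 °C, 14 h light, 65% humidity, watered twice daily), and injury was rated 0–100 at day 13.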
# corn (Zea mays) [8] = test: Test G Pre-Emergence Protocol; conditions: Zea mays, pre-emergence, 312 h, evaluated after 13 days; for plant injury at 15.625 g/ha: 15.625 g ai/ha; for plant injury at 15.625 g/ha / plant injury at 250 g/ha: read-out: Corn damage rating (100=total damage to plant; 0=no damage to plant); for plant injury at 62.5 g/ha: 62.5 g ai/ha, 100=total damage to plant, 0=no damage to plant, read-out: plant damage rating, Corn; for plant injury at 250 g/ha: 250 g ai/ha
# Method in brief: as §2
# [9] = test system: ivy-leaved morning glory (Ipomoea hederacea); test: Test G Pre-Emergence Protocol; conditions: Ipomoea, pre-emergence, 312 h, evaluated after 13 days; for pest or weed control at 15.625 g/ha: 15.625 g ai/ha, read-out: Morning-glory, Ivy-leaved damage rating (100=total damage to plant; 0=no damage to plant); for pest or weed control at 62.5 g/ha: 62.5 g ai/ha, 100=total damage to plant, 0=no damage to plant, read-out: plant damage rating, Morningglory, Ivy-leaved; for pest or weed control at 250 g/ha: 250 g ai/ha, read-out: Morningglory, Ivy-leaved damage rating (100=total damage to plant; 0=no damage to plant)
# Method in brief: as §2
# [10] = test system: giant foxtail (Setaria faberi); test: Test G Pre-Emergence Protocol; conditions: Setaria faberi, pre-emergence, 312 h, evaluated after 13 days; for pest or weed control at 15.625 g/ha: 15.625 g ai/ha; for pest or weed control at 15.625 g/ha / pest or weed control at 250 g/ha: read-out: Foxtail, Giant damage rating (100=total damage to plant; 0=no damage to plant); for pest or weed control at 62.5 g/ha: 62.5 g ai/ha, 100=total damage to plant, 0=no damage to plant, read-out: plant damage rating, Foxtail, Giant; for pest or weed control at 250 g/ha: 250 g ai/ha
# Method in brief: as §2
# [11] = test system: velvetleaf (Abutilon theophrasti); test: Test G Pre-Emergence Protocol; conditions: Abutilon theophrasti, pre-emergence, 312 h, evaluated after 13 days; for pest or weed control at 15.625 g/ha: 15.625 g ai/ha; for pest or weed control at 15.625 g/ha / pest or weed control at 250 g/ha: read-out: Velvetleaf damage rating (100=total damage to plant; 0=no damage to plant); for pest or weed control at 62.5 g/ha: 62.5 g ai/ha, 100=total damage to plant, 0=no damage to plant, read-out: plant damage rating, Velvetleaf; for pest or weed control at 250 g/ha: 250 g ai/ha
# Method in brief: as §2
# [12] = test system: barnyardgrass (Echinochloa crus-galli); test: Test G Pre-Emergence Protocol; conditions: Echinochloa crus-galli, pre-emergence, 312 h, evaluated after 13 days; for pest or weed control at 15.625 g/ha: 15.625 g ai/ha, read-out: Barnyard grass damage rating (100=total damage to plant; 0=no damage to plant); for pest or weed control at 62.5 g/ha: 62.5 g ai/ha, 100=total damage to plant, 0=no damage to plant, read-out: plant damage rating, Barnyardgrass; for pest or weed control at 250 g/ha: 250 g ai/ha, read-out: Barnyardgrass damage rating (100=total damage to plant; 0=no damage to plant)
# Method in brief: as §2
SMILES,pest or weed control at 15.625 g/ha [1] [%],pest or weed control at 62.5 g/ha [1] [%],pest or weed control at 250 g/ha [1] [%],plant injury at 15.625 g/ha (corn (Zea mays) [2]) [%],plant injury at 62.5 g/ha (corn (Zea mays) [2]) [%],plant injury at 250 g/ha (corn (Zea mays) [2]) [%],pest or weed control at 15.625 g/ha [3] [%],pest or weed control at 62.5 g/ha [3] [%],pest or weed control at 250 g/ha [3] [%],pest or weed control at 15.625 g/ha [4] [%],pest or weed control at 62.5 g/ha [4] [%],pest or weed control at 250 g/ha [4] [%],pest or weed control at 15.625 g/ha [5] [%],pest or weed control at 62.5 g/ha [5] [%],pest or weed control at 250 g/ha [5] [%],pest or weed control at 15.625 g/ha [6] [%],pest or weed control at 62.5 g/ha [6] [%],pest or weed control at 250 g/ha [6] [%],pest or weed control at 15.625 g/ha [7] [%],pest or weed control at 62.5 g/ha [7] [%],also measured
CN1C[C@@H](c2ccc(C(F)(F)F)cc2)[C@H](C(=O)Nc2cccc3cn[nH]c23)C1=O (racemic) [Compound 1605],0,20,30,0,0,10,0,0,0,0,0,10,0,0,10,0,0,30,0,0,pest or weed control at 250 g/ha [7]: 0%; plant injury at 15.625 g/ha (corn (Zea mays) [8]): 0%; plant injury at 62.5 g/ha (corn (Zea mays) [8]): 0%; plant injury at 250 g/ha (corn (Zea mays) [8]): 0%; pest or weed control at 15.625 g/ha [9]: 0%; pest or weed control at 62.5 g/ha [9]: 0%; pest or weed control at 250 g/ha [9]: 0%; pest or weed control at 15.625 g/ha [10]: 0%; pest or weed control at 62.5 g/ha [10]: 0%; pest or weed control at 250 g/ha [10]: 0%; pest or weed control at 15.625 g/ha [11]: 0%; pest or weed control at 62.5 g/ha [11]: 0%; pest or weed control at 250 g/ha [11]: 0%; pest or weed control at 15.625 g/ha [12]: 0%; pest or weed control at 62.5 g/ha [12]: 0%; pest or weed control at 250 g/ha [12]: 0%
Cc1nc(F)ccc1[C@@H]1CN(C)C(=O)[C@H]1C(=O)Nc1cccc(F)c1F (racemic) [Compound 1492],0,0,0,0,0,0,0,0,0,0,40,60,0,0,20,0,30,60,0,0,pest or weed control at 250 g/ha [7]: 0%; plant injury at 15.625 g/ha (corn (Zea mays) [8]): 0%; plant injury at 62.5 g/ha (corn (Zea mays) [8]): 0%; plant injury at 250 g/ha (corn (Zea mays) [8]): 0%; pest or weed control at 15.625 g/ha [9]: 0%; pest or weed control at 62.5 g/ha [9]: 0%; pest or weed control at 250 g/ha [9]: 0%; pest or weed control at 15.625 g/ha [10]: 0%; pest or weed control at 62.5 g/ha [10]: 20%; pest or weed control at 250 g/ha [10]: 80%; pest or weed control at 15.625 g/ha [11]: 0%; pest or weed control at 62.5 g/ha [11]: 0%; pest or weed control at 250 g/ha [11]: 0%; pest or weed control at 15.625 g/ha [12]: 0%; pest or weed control at 62.5 g/ha [12]: 20%; pest or weed control at 250 g/ha [12]: 80%
CN1C[C@H](c2ccc(C(F)(F)F)cc2)[C@@H](C(=O)Nc2ccc(F)c(Cl)c2)C1=O (racemic) [Compound 1434],0,0,20,10,0,10,0,0,0,0,0,30,0,0,10,0,0,20,0,0,pest or weed control at 250 g/ha [7]: 0%; plant injury at 15.625 g/ha (corn (Zea mays) [8]): 0%; plant injury at 62.5 g/ha (corn (Zea mays) [8]): 0%; plant injury at 250 g/ha (corn (Zea mays) [8]): 0%; pest or weed control at 15.625 g/ha [9]: 0%; pest or weed control at 62.5 g/ha [9]: 0%; pest or weed control at 250 g/ha [9]: 0%; pest or weed control at 15.625 g/ha [10]: 0%; pest or weed control at 62.5 g/ha [10]: 20%; pest or weed control at 250 g/ha [10]: 50%; pest or weed control at 15.625 g/ha [11]: 0%; pest or weed control at 62.5 g/ha [11]: 0%; pest or weed control at 250 g/ha [11]: 0%; pest or weed control at 15.625 g/ha [12]: 0%; pest or weed control at 62.5 g/ha [12]: 0%; pest or weed control at 250 g/ha [12]: 20%
